According to patent US20030203850A1, “Transdifferentiation of pancreatic acinar cells” (McGill University, priority 2002, published 2003):
Ends that are not written are not given here.

Tested on: β-cell mass
Experiment: INGAP peptide administration to hamsters: extra-islet acinar-associated and total β-cell mass
Assay type: in vivo
Conditions: 250 μg twice daily intra-peritoneal, female Syrian hamsters
Procedure: Female Syrian hamsters, 8 weeks of age, were randomly allocated to receive daily intra-peritoneal injections of INGAP peptide (Ile-Gly-Leu-His-Asp-Pro-Ser-His-Gly-Thr-Leu-Pro-Asn-Gly-Ser) (250 μg twice daily) or an equivalent volume of saline for either 10 (saline n=10, INGAP n=15) or 30 (S n=10, I n=15) days. At the end of the study period, animals were sacrificed by bleeding, and the pancreata excised through a midline laparotomy incision, for morphologic and morphometric analysis.
Samples were embedded in paraffin wax and 4 μm-thick sections were cut. The sections were processed for routine histology and immunostained for insulin, CK19 (1:750, 1:100 respective antibody dilution, Dako Corp., Santa Barbara, Calif.), glucagon, somatostatin and pancreatic polypeptide (1:750 antibody dilution, Biogenex, San Ramon, Calif., USA), using the AB complex method (streptavidin-biotin horseradish peroxidase complex, Dako Corp., Santa Barbara, Calif.), as described previously (22). A rabbit PDX-1 antibody directed against the NH2-terminus of the frog homologue of the protein encoded by the pdx-1 gene was used as the primary antibody (1:750 dilution; a gift from C. Wright, Vanderbilt University). Slides were countered stained with Harris hematoxylin (Sigma, St. Louis, Mo.).
Comparison between groups was done using 1-way ANOVA, 2-way ANOVA with post hoc one-tail t-test or X^2 analysis where appropriate. Data are presented as mean±SEM. Significance was accepted at the 5% level.
To determine β-cell mass (mg/pancreas), each gland was sectioned along its longitudinal axis to avoid any sampling bias due to regional variation in islet distribution and cell composition. Islet cross-sectional areas were traced manually with the aid of an Olympus BX60 microscope connected by video camera to a computer equipped with Image-pro Plus software version 4.0 (23). The total β-cell mass was calculated by a stereological equation, as described previously (22).
β-cell neogenesis and acinar-associated β-cell mass was analysed as described previously […]. Briefly, extra-islet acinar-associated β-cells/cell clusters were defined as insulin positive cells/cell clusters not associated with any other endocrine cells (α, δ, PP), completely surrounded by acinar tissue and a minimum of 100 μm from ductular tissue. The percent β-cell area being extra-islet acinar-associated was determined and multiplied by the weight of the excised organ to determine extra-islet acinar-associated β-cell mass.

IGLHDPSHGTLPNGS [INGAP peptide]
increase in extra-islet acinar-associated β-cell mass versus saline infused controls (10 days of treatment): 180%
increase in total β-cell mass (10 days of treatment): 44%
increase in total β-cell mass (30 days of treatment): 31%
increase in extra-islet acinar-associated β-cell mass versus saline infused controls (30 days of treatment, p<0.05): 200%
